Active and inactive are the calls of the source. The rule behind the calls is not given here.

The data set relates to rodent carcinogenicity bioassays, tumor incidence. Kind of data set: CCRIS carcinogenicity studies. Summed up:
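Archive of carcinogenicity, mutagenicity, tumor promotion and tumor inhibition results drawn from journals, NCI reports and other sources, expert-reviewed; covers 1985-2011 and is no longer updated.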

Setting [1] is: Species: MOUSE, Route: INTRAPERITONEAL, Tumor Site: Type of Lesion: LUNG.

With `O=NN1CCC[C@H]1c1cccnc1`, the carcinogen call runs as follows: (Species: HAMSTER, Route: SUBCUTANEOUS, Tumor Site: Type of Lesion: TRACHEA) “active; positive”; (Species: MINK, Strain/Sex: MALE, FEMALE, Route: SUBCUTANEOUS, Dose: 0, 11.9 MILLIMOLAR (TOTAL DOSE) GIVEN IN SUBDOSES 2/WK FOR 38 WK (STUDY DURATION: 185 WK), Tumor Site: Type of Lesion: NASAL CAVITY: TUMORS) “active; positive”; under setting [1], “active; positive”; (Species: MOUSE, Strain/Sex: CFLP/FEMALE, Route: DERMAL, Dose: 0, 12.5, 50, 200 UG IN ACETONE 2 D/WK FOR 104 WK (STUDY DURATION: 24 MO), Dose: 0, 12.5, 50, 200 UG IN ACETONE 2 D/WK FOR 104 WK (STUDY DURATION: 24 MO)) “inactive; negative”; (Species: MOUSE, Strain/Sex: STRAIN-A/FEMALE, Route: INTRAPERITONEAL, Dose: 0, 40, 200 UMOL TOTAL DOSE ADMINISTERED IN SUBDOSES 3/WK FOR 7 WK (STUDY DURATION: 37 WK), Dose: 0, 40, 200 UMOL TOTAL DOSE ADMINISTERED IN SUBDOSES 3/WK FOR 7 WK (STUDY DURATION: 37 WK), Tumor Site: Type of Lesion: LUNG: TUMOR) “active; positive”; (Species: RAT, Route: ORAL, Tumor Site: Type of Lesion: ESOPHAGUS, NASAL CAVITY) “active; positive”. Further, the carcinogen call is “active; positive” (Species: RAT, Strain/Sex: F344/FEMALE, Route: SUBCUTANEOUS, Dose: 0, 1, 3, 9 MMOL/KG BW (TOTAL DOSE) WITH SUBDOSES GIVEN 3/WK FOR 20 WK WITH A 2 WK INTERRUPTION AFTER 7 WK (STUDY DURATIO, Dose: 0, 1, 3, 9 MMOL/KG BW (TOTAL DOSE) WITH SUBDOSES GIVEN 3/WK FOR 20 WK WITH A 2 WK INTERRUPTION AFTER 7 WK (STUDY DURATIO, Tumor Site: Type of Lesion: NASAL CAVITY: TUMORS, ESOPHAGUS: BENIGN TUMORS) and “active; positive” (Species: RAT, Strain/Sex: F344/MALE, Route: SUBCUTANEOUS, Dose: 0, 1, 3, 9 MMOL/KG BW (TOTAL DOSE) WITH SUBDOSES GIVEN 3/WK FOR 20 WK WITH A 2 WK INTERRUPTION AFTER 7 WK (STUDY DURATIO, Dose: 0, 1, 3, 9 MMOL/KG BW (TOTAL DOSE) WITH SUBDOSES GIVEN 3/WK FOR 20 WK WITH A 2 WK INTERRUPTION AFTER 7 WK (STUDY DURATIO, Tumor Site: Type of Lesion: NASAL CAVITY: TUMORS, LUNG: TUMORS, ESOPHAGUS: BENIGN TUMORS, Tumor Site: Type of Lesion: NASAL CAVITY: TUMORS, LUNG: TUMORS, ESOPHAGUS: BENIGN TUMORS).

For the compound `ClC(Br)Br`, the carcinogen call reads like this: (Species: MOUSE, Strain/Sex: B6C3F1/FEMALE, Route: GAVAGE, Dose: 0, 50, 100 MG/KG IN CORN OIL 5 D/WK FOR 105 WK (STUDY DURATION: 105 WK), Dose: 0, 50, 100 MG/KG IN CORN OIL 5 D/WK FOR 105 WK (STUDY DURATION: 105 WK), Tumor Site: Type of Lesion: LIVER: HEPATOCELLULAR ADENOMA, HEPATOCELLULAR ADENOMA OR CARCINOMA) “active; positive”; (Species: MOUSE, Strain/Sex: B6C3F1/MALE, Route: GAVAGE, Dose: 0, 50, 100 MG/KG IN CORN OIL 5 D/WK FOR 105 WK (STUDY DURATION: 105 WK), Dose: 0, 50, 100 MG/KG IN CORN OIL 5 D/WK FOR 105 WK (STUDY DURATION: 105 WK), Tumor Site: Type of Lesion: LIVER: HEPATOCELLULAR CARCINOMA, HEPATOCELLULAR ADENOMA OR CARCINOMA) “equivocal”; (Species: RAT, Strain/Sex: F344/FEMALE, Route: GAVAGE, Dose: 0, 40, 80 MG/KG IN CORN OIL 5 D/WK FOR 104 WK (STUDY DURATION: 105 WK), Dose: 0, 40, 80 MG/KG IN CORN OIL 5 D/WK FOR 104 WK (STUDY DURATION: 105 WK)) “inactive; negative”; (Species: RAT, Strain/Sex: F344/MALE, Route: GAVAGE, Dose: 0, 40, 80 MG/KG IN CORN OIL 5 D/WK FOR 104 WK (STUDY DURATION: 105 WK), Dose: 0, 40, 80 MG/KG IN CORN OIL 5 D/WK FOR 104 WK (STUDY DURATION: 105 WK)) “inactive; negative”.

Consider `CN(C#N)N=O`, for which the carcinogen call (Species: RAT, Strain/Sex: SPRAGUE-DAWLEY/FEMALE, Route: ORAL, Dose: 0, 6.9 MG/KG IN 25 ML DRINKING WATER DAILY (STUDY DURATION: >11 MO), Tumor Site: Type of Lesion: FORESTOMACH: SQUAMOUS CELL CARCINOMA, ESOPHAGUS: SQUAMOUS CELL PAPILLOMA OR SQUAMOUS CELL CARCINOMA) is “active; positive”.

On to `CON(C)C(=O)Nc1ccc(Cl)c(Cl)c1`, for which the carcinogen call by setting is: (Species: Mouse, Strain/Sex: CD-1/Female (80/Group), Route: Oral, Dose: 0, 50, 150, 1500 ppm of 97% linuron in diet for 24 mo, study duration 24 mo, Dose: 0, 50, 150, 1500 ppm of 97% linuron in diet for 24 mo, study duration 24 mo, Tumor Site: Type of Lesion: Liver: hepatocellular adenomas (high dose only)) “active; positive”; (Species: Mouse, Strain/Sex: CD-1/Male (80/Group), Route: Oral, Dose: 0, 50, 150, 1500 ppm of 97% linuron in diet for 24 mo, study duration 24 mo, Dose: 0, 50, 150, 1500 ppm of 97% linuron in diet for 24 mo, study duration 24 mo) “inactive; negative”; (Species: Rat, Strain/Sex: Charles River CD/Female (70/Group), Route: Oral, Dose: 0, 50, 125, 625 ppm 97% linuron in diet for 24 mo, study duration 24 mo, Dose: 0, 50, 125, 625 ppm 97% linuron in diet for 24 mo, study duration 24 mo) “inactive; negative”; (Species: Rat, Strain/Sex: Charles River CD/Male (70/Group), Route: Oral, Dose: 0, 50, 125, 625 ppm 97% linuron in diet for 24 mo, study duration 24 mo, Dose: 0, 50, 125, 625 ppm 97% linuron in diet for 24 mo, study duration 24 mo, Tumor Site: Type of Lesion: Testes: Interstitial cell adenoma) “active; positive”; (Species: Rat, Strain/Sex: Crl:CD (SD)BR /Male (25/Group), Route: Oral, Dose: 0 (control diet), control diet for 18 mo followed by 625 ppm linuron for 6 mo, control diet for 1 yr followed by 625 ppm, Dose: 0 (control diet), control diet for 18 mo followed by 625 ppm linuron for 6 mo, control diet for 1 yr followed by 625 ppm, Tumor Site: Type of Lesion: Testes: interstitial cell tumors (0/25, 2/25 (6-mo. feed), 6/25 (12 mo feed))) “active; positive”.

For `CCCCC1C(=O)N(c2ccccc2)N(c2ccccc2)C1=O`, the carcinogen call is “inactive; negative” (Species: MOUSE, Strain/Sex: B6C3F1/FEMALE, Route: GAVAGE, Dose: 0, 150, 300 MG/KG IN CORN OIL 5 D/WK FOR 103 WK (STUDY DURATION: 107 WK), Dose: 0, 150, 300 MG/KG IN CORN OIL 5 D/WK FOR 103 WK (STUDY DURATION: 107 WK)); “active; positive” (Species: MOUSE, Strain/Sex: B6C3F1/MALE, Route: GAVAGE, Dose: 0, 150, 300 MG/KG IN CORN OIL 5 D/WK FOR 103 WK (STUDY DURATION: 107 WK), Dose: 0, 150, 300 MG/KG IN CORN OIL 5 D/WK FOR 103 WK (STUDY DURATION: 107 WK), Tumor Site: Type of Lesion: LIVER: HEPATOCELLULAR ADENOMA, HEPATOCELLULAR ADENOMA OR CARCINOMA); “active; positive” (Species: RAT, Strain/Sex: F344/FEMALE, Route: GAVAGE, Dose: 0, 50, 100 MG/KG IN CORN OIL 5 D/WK FOR 103 WK (STUDY DURATION: 103 WK), Dose: 0, 50, 100 MG/KG IN CORN OIL 5 D/WK FOR 103 WK (STUDY DURATION: 103 WK), Tumor Site: Type of Lesion: KIDNEY: TRANSITIONAL EPITHELIAL CARCINOMA, TUBULAR CELL ADENOMA); “equivocal” (Species: RAT, Strain/Sex: F344/MALE, Route: GAVAGE, Dose: 0, 50, 100 MG/KG IN CORN OIL 5 D/WK FOR 103 WK (STUDY DURATION: 103 WK), Dose: 0, 50, 100 MG/KG IN CORN OIL 5 D/WK FOR 103 WK (STUDY DURATION: 103 WK), Tumor Site: Type of Lesion: KIDNEY: TUBULAR CELL ADENOMA, TUBULAR CELL ADENOMA OR CARCINOMA).

In the case of `CI`, the carcinogen call reads like this: under setting [1], “active; positive”; (Species: RAT, Route: SUBCUTANEOUS, Tumor Site: Type of Lesion: INJECTION SITE) “active; positive”; (Species: Rat, Strain/Sex: Crl:CD(SD)IGS BR/Female (50/Group), Route: Inhalation (whole body), Dose: 0, 5, 20, 60 ppm for 2 yr, study duration 2 yr, Dose: 0, 5, 20, 60 ppm for 2 yr, study duration 2 yr, Tumor Site: Type of Lesion: Thyroid: follicular cell adenoma (60 ppm)) “active; positive”; (Species: Rat, Strain/Sex: Crl:CD(SD)IGS BR/Male (50/Group), Route: Inhalation (whole body), Dose: 0, 5, 20, 60 ppm for 2 yr, study duration 2 yr, Dose: 0, 5, 20, 60 ppm for 2 yr, study duration 2 yr, Tumor Site: Type of Lesion: Thyroid: follicular cell adenoma (60 ppm)) “active; positive”.

For `O=[N+]([O-])c1ccc(O)cc1`, the carcinogen call reads like this: (Species: MOUSE, Strain/Sex: SWISS/FEMALE, Route: DERMAL, Dose: 0, 40, 80, 160 MG/KG IN ACETONE 3 D/WK FOR 78 WK (STUDY DURATION: 18 MO), Dose: 0, 40, 80, 160 MG/KG IN ACETONE 3 D/WK FOR 78 WK (STUDY DURATION: 18 MO)) “inactive; negative”; (Species: MOUSE, Strain/Sex: SWISS/MALE, Route: DERMAL, Dose: 0, 40, 80, 160 MG/KG IN ACETONE 3 D/WK FOR 78 WK (STUDY DURATION: 18 MO), Dose: 0, 40, 80, 160 MG/KG IN ACETONE 3 D/WK FOR 78 WK (STUDY DURATION: 18 MO)) “inactive; negative”.

On to `CCCC[N+](=O)[O-]`, for which the carcinogen call (Species: RAT, Strain/Sex: F344/MALE, Route: GAVAGE, Dose: 0, 2 MMOL/KG BW 1/WK FOR 50 WK (STUDY DURATION: 83 WK)) was “inactive; negative”.

The values are drawn from PubChem BioAssay AID1259411 (Chemical Carcinogenesis Research Information System (CCRIS), 2018).
